SMILES strings stand for the structures.

The subject of data set [1] is Canis familiaris. The experiment in a line: Increase in heart rate in iv dosed anesthetized mongrel dog. The settings on record: in vivo. The data set is classed as organism-based, Canis lupus familiaris.
Data set [2] concerns Canis familiaris. The experiment in a line: Bronchodilatory activity in iv dosed mongrel dog assessed as inhibition of histamine-induced bronchospasm administered 1 min prior to histamine challenge. The data set is classed as functional. The settings on record: Canis lupus familiaris.
Data set [3] has as its system Canis familiaris. The data set can be described thus: Bronchodilatory activity in iv dosed mongrel dog assessed as inhibition of histamine-induced bronchospasm administered 1 min prior to histamine challenge relative to l-isoproterenol. Format: functional, Canis lupus familiaris.
Data set [4] is filed under the species Canis familiaris. The data set can be described thus: Separation ratio of ED25 for increase in heart rate in mongrel dog to ED50 for inhibition of bronchoconstriction in mongrel dog. Also on record: species or system Canis lupus familiaris.
In data set [5] the test system is Canis familiaris. The experiment in a line: Increase in heart rate in iv dosed anesthetized mongrel dog relative to l-isoproterenol. The data set is classed as organism-based, Canis lupus familiaris. The settings on record: in vivo.

`CC(C)NCC(O)c1ccc(O)c(O)c1` (stereo not drawn) [ISOPROTERENOL] came in with an ED25 in the data set on Canis familiaris [1] of 0.019 µg/kg. In the data set with Canis familiaris [2], the ED50 was determined as 0.069 µg/kg.
In the case of `CC[C@@H](NC(C)C)[C@H](O)c1ccc(O)c2[nH]c(=O)ccc12`, in the data set on Canis familiaris [3], the “Ratio ED50” value came out at 4110. The figures for the Ratio in the data set filed under Canis familiaris [4] and with Canis familiaris [5] were 1.84 and 7560, respectively.
The corresponding values for `CCC(NC(C)C)C(O)c1ccc(O)c2[nH]c(=O)ccc12` (stereo in doubt) [PROCATEROL] are 1.41, 23.5 and 33.2.
Turning to `CCC(NC(C)C)C(O)c1ccc(O)c2[nH]c(=O)ccc12` (racemic; erythro) [PROCATEROL], the “Ratio ED50” value in the data set on Canis familiaris [3] came to 2.03. The Ratio in the data set listed under Canis familiaris [4] amounted to 24.9; with Canis familiaris [5] it was 50.5.
On to `CCC(NC(C)C)C(O)c1ccc(O)c2[nH]c(=O)ccc12` (racemic; threo) [PROCATEROL], for which the ED19.5 in the data set on Canis familiaris [1] turned out to be 300 µg/kg. In addition, the “Ratio ED50” value with Canis familiaris [3] came out at 148.
`CC[C@@H](NC(C)C)[C@@H](O)c1ccc(O)c2[nH]c(=O)ccc12`: the ED14.5 in the data set on Canis familiaris [1] is 3000 µg/kg. Besides, in the data set on Canis familiaris [3], the “Ratio ED50” value is given as 18500.
Consider `CC[C@H](NC(C)C)[C@@H](O)c1ccc(O)c2[nH]c(=O)ccc12`, for which the “Ratio ED50” value with Canis familiaris [3] turned out to be 566. Moreover, the Ratio is 16.9 in the data set filed under Canis familiaris [4] and 9550 in the data set with Canis familiaris [5].

The values are drawn from ChEMBL document CHEMBL3244016, “Isomers of erythro-5-(1-hydroxy-2-isopropylaminobutyl)-8-hydroxycarbostyril, a new bronchodilator” (J Med Chem, 1977).
